In ChEMBL document CHEMBL3217460, “Interactions of polysulfanes with components of red blood cells” (Medchemcomm, 2011):
Active and inactive are the calls of the source. The calls are words filed in the database; no cut-off is given here.

Key:
[1] = molecular target: T1, Hemoglobin HbA (Homo sapiens) (UniProt P69905+P68871); assay: Binding affinity to human hemoglobin at 100 to 300 uM by UV-Vis spectrophotometric analysis
[2] = physchem
[3] = test system: Erythrocyte; assay: Hemolytic activity in human RBC assessed as phosphatidylserine exposure on outer leaflet of cell membrane at 50 uM after 20 mins by annexin V-FITC staining-based FACS analysis; assay type: functional
[4] = molecular target: T1, Hemoglobin HbA (Homo sapiens); assay: Binding affinity to human hemoglobin by CD spectroscopic analysis
[5] = test system: Erythrocyte; assay: Hemolytic activity in human RBC assessed as oxidation of hemoglobin to methemoglobin after 30 mins by UV-Vis spectrophotometric analysis; assay type: functional, cell-based

T1 sequence (P68871 2-147 partner limits assumed): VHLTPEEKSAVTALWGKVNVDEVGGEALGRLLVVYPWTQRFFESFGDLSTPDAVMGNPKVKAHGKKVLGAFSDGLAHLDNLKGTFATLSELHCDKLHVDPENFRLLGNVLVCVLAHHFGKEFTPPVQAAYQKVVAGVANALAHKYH
T1 sequence (P69905 2-142 limits assumed): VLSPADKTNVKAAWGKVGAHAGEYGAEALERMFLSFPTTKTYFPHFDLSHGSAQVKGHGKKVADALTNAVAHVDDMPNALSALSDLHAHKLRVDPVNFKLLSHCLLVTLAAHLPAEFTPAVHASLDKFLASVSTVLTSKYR

## C=CCSSCC=C
[1]
  Activity: Active
[2]
  logP at 1000 µM: 2.72
[3]
  Activity: Active
[4]
  Activity: Active

## C=CCSCC=C
[1]
  Activity: Active
[3]
  Activity: Active
[4]
  Activity: Active

## C=CCSSSCC=C
[1]
  Activity: Active
[5]
  Activity: Dose-dependent effect
[3]
  Activity: Active
[4]
  Activity: Active

## C=CCS
[3]
  Activity: Active

## C=CCCCCCCC=C
[2]
  logP at 1000 µM: 4.71

## C=CCSSSSCC=C
[1]
  Activity: Active
[5]
  Activity: Dose-dependent effect
[3]
  Activity: Active
[4]
  Activity: Active
